Measurements from patent publication US20110263664A1, “Inhibitors of PIM-1 Protein Kinases, Compositions and Methods for Treating Prostate Cancer” (MUSC FOUNDATION FOR RESEARCH DEVELOPMENT, priority 2007, published 2011).

Tests used:
Format in all cases: biochemical
[1] = target: JAK2 (Homo sapiens, UniProt O60674); assay: Kinase selectivity, Table 5: JAK2; conditions: read-out: selectivity data (inhibition), JAK2
[2] = target: CK1δ (Homo sapiens, UniProt P48730); assay: Kinase selectivity, Table 5: CK1δ; conditions: read-out: selectivity data (inhibition), CK1δ
Sequence of CK1δ (P48730 whole entry): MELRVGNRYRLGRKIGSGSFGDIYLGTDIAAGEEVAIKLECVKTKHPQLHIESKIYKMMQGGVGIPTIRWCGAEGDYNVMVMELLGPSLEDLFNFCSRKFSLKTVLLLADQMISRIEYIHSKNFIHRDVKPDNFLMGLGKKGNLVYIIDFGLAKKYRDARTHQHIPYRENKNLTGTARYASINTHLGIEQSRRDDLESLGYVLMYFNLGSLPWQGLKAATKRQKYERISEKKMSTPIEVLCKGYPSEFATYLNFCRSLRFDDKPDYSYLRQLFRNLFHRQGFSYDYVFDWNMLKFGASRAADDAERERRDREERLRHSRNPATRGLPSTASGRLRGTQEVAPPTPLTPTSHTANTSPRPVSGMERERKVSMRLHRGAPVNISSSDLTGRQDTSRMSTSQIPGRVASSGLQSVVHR

[3] = target: AurA (Homo sapiens, UniProt O14965); assay: Kinase selectivity, Table 5: AurA; conditions: read-out: selectivity data (inhibition), AurA
Sequence of AurA (O14965 whole entry, species assumed): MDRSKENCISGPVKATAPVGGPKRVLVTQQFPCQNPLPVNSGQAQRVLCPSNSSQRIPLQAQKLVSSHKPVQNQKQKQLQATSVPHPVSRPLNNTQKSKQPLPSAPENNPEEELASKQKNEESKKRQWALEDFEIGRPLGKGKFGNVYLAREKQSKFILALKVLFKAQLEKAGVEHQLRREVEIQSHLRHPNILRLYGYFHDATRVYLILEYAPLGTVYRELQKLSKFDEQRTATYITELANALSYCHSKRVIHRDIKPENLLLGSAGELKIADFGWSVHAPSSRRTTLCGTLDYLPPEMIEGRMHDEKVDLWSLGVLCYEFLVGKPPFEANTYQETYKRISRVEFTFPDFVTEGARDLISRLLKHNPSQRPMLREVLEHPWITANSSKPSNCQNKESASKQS

[4] = target: IRAK4 (Homo sapiens, UniProt Q9NWZ3); assay: Kinase selectivity, Table 5: IRAK4; conditions: read-out: selectivity data (inhibition), IRAK4
Sequence of IRAK4 (Q9NWZ3 whole entry, species assumed): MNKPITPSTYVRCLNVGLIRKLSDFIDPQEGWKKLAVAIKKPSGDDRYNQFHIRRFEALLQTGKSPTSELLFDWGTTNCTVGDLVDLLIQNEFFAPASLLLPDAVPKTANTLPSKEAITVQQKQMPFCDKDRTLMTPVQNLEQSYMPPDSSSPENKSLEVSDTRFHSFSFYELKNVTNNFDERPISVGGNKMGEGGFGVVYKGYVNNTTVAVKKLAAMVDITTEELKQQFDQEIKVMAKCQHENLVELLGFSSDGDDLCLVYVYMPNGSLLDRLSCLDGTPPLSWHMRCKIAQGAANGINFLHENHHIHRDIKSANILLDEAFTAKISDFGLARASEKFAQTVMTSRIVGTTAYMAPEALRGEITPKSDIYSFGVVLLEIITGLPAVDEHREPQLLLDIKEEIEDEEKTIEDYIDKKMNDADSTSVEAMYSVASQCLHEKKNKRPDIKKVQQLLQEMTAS

[5] = target: MARK1 (Homo sapiens, UniProt Q9P0L2); assay: Kinase selectivity, Table 5: MARK1; conditions: read-out: selectivity data (inhibition), MARK1
Sequence of MARK1 (Q9P0L2 whole entry, species assumed): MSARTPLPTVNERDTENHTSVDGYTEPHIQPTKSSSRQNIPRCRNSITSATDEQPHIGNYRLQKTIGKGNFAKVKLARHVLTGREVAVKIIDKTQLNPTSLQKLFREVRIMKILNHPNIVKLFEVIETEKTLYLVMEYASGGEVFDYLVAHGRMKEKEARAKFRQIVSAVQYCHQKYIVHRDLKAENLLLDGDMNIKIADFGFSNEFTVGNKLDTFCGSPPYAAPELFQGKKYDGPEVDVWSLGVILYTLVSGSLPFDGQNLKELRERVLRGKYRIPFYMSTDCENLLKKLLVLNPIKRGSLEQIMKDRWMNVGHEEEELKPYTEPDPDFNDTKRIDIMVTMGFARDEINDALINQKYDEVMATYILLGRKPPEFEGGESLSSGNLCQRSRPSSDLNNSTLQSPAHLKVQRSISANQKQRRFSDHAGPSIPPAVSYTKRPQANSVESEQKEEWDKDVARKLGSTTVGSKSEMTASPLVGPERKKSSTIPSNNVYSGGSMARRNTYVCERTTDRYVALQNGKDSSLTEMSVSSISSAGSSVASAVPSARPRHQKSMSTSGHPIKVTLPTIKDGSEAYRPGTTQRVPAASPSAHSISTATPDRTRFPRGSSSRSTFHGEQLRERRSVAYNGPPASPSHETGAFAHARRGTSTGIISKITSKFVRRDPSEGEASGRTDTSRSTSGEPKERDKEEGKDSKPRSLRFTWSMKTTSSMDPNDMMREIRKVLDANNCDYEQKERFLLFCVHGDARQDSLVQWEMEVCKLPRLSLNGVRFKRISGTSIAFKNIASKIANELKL

[6] = target: FLT3(D835Y) (Homo sapiens, UniProt P36888, D835Y); assay: Kinase selectivity, Table 5: FLT3(D835Y); conditions: read-out: selectivity data (inhibition), FLT3(D835Y)
[7] = target: MSK1 (Homo sapiens, UniProt O75582); assay: Kinase selectivity, Table 5: MSK1; conditions: read-out: selectivity data (inhibition), MSK1
[8] = target: RSK1 (Homo sapiens, UniProt Q15418); assay: Kinase selectivity, Table 5: RSK1; conditions: read-out: selectivity data (inhibition), RSK1
[9] = target: MET (Homo sapiens, UniProt P08581); assay: Kinase selectivity, Table 5: MET; conditions: read-out: selectivity data (inhibition), MET
[10] = target: PIM1 (Homo sapiens, UniProt P11309); assay: Kinase selectivity, Table 5: PIM1; conditions: read-out: selectivity data (inhibition), PIM1
[11] = target: PDK1 (Homo sapiens, UniProt O15530); assay: Kinase selectivity, Table 5: PDK1; conditions: read-out: selectivity data (inhibition), PDK1
[12] = target: PAK2 (Homo sapiens, UniProt Q13177); assay: Kinase selectivity, Table 5: PAK2; conditions: read-out: selectivity data (inhibition), PAK2
[13] = target: PKCβ2 (Homo sapiens, UniProt P05771); assay: Kinase selectivity, Table 5: PKCβ2; conditions: read-out: selectivity data (inhibition), PKCβ2
[14] = target: c-TAK1 (Homo sapiens, UniProt P27448); assay: Kinase selectivity, Table 5: c-TAK1; conditions: read-out: selectivity data (inhibition), c-TAK1
[15] = target: IGF1R (Homo sapiens, UniProt P08069); assay: Kinase selectivity, Table 5: IGF1R; conditions: read-out: selectivity data (inhibition), IGF1R
[16] = target: p70S6K (Homo sapiens, UniProt P23443); assay: Kinase selectivity, Table 5: p70S6K; conditions: read-out: selectivity data (inhibition), p70S6K
[17] = target: INSR (Homo sapiens, UniProt P06213); assay: Kinase selectivity, Table 5: INSR; conditions: read-out: selectivity data (inhibition), INSR
[18] = target: CAMK4 (Homo sapiens, UniProt Q16566); assay: Kinase selectivity, Table 5: CAMK4; conditions: read-out: selectivity data (inhibition), CAMK4
Sequence of CAMK4 (Q16566 whole entry): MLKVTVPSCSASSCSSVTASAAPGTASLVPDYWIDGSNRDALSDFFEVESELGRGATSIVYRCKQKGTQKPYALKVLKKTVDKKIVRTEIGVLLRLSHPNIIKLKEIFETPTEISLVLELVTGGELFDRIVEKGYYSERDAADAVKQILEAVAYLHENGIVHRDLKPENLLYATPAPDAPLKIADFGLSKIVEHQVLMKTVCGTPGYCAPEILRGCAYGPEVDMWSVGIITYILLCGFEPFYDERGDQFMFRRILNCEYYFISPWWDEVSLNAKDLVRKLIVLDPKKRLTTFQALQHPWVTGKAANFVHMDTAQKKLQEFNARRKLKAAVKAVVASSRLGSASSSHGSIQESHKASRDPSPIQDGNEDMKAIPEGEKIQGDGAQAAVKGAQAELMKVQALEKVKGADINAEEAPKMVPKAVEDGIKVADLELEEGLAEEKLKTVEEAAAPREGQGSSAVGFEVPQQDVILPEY

[19] = target: AKT1 (Homo sapiens, UniProt P31749); assay: Kinase selectivity, Table 5: AKT1; conditions: read-out: selectivity data (inhibition), AKT1
[20] = target: PDGFRα (Homo sapiens, UniProt P16234); assay: Kinase selectivity, Table 5: PDGFRα; conditions: read-out: selectivity data (inhibition), PDGFRα
[21] = target: JNK2 (Homo sapiens, UniProt P45984); assay: Kinase selectivity, Table 5: JNK2; conditions: read-out: selectivity data (inhibition), JNK2
[22] = target: Erk2 (Homo sapiens, UniProt P28482); assay: Kinase selectivity, Table 5: Erk2; conditions: read-out: selectivity data (inhibition), Erk2
[23] = target: AKT2 (Homo sapiens, UniProt P31751); assay: Kinase selectivity, Table 5: AKT2; conditions: read-out: selectivity data (inhibition), AKT2
[24] = target: PLK1 (Homo sapiens, UniProt P53350); assay: Kinase selectivity, Table 5: PLK1; conditions: read-out: selectivity data (inhibition), PLK1
[25] = target: PKD2 (Homo sapiens, UniProt Q9BZL6); assay: Kinase selectivity, Table 5: PKD2; conditions: read-out: selectivity data (inhibition), PKD2
[26] = target: AKT3 (Homo sapiens, UniProt Q9Y243); assay: Kinase selectivity, Table 5: AKT3; conditions: read-out: selectivity data (inhibition), AKT3
Sequence of AKT3 (Q9Y243 whole entry, species assumed): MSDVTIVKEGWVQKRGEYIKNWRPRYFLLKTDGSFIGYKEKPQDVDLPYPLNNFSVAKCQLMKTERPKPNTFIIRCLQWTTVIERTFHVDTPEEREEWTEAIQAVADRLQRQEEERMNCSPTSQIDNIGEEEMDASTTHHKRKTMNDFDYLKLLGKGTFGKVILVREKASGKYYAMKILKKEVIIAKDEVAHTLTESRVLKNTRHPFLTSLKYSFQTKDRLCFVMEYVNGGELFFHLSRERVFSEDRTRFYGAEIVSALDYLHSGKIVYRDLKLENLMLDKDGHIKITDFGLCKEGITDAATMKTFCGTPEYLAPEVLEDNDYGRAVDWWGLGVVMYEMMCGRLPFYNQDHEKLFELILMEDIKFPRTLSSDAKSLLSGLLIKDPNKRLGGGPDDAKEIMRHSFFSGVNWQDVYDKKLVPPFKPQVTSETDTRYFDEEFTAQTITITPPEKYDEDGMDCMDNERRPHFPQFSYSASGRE

[27] = target: DYRK1α (Homo sapiens, UniProt Q13627); assay: Kinase selectivity, Table 5: DYRK1α; conditions: read-out: selectivity data (inhibition), DYRK1α
[28] = target: PIM2 (Homo sapiens, UniProt Q9P1W9); assay: Kinase selectivity, Table 5: PIM2; conditions: read-out: selectivity data (inhibition), PIM2
Sequence of PIM2 (Q9P1W9 whole entry): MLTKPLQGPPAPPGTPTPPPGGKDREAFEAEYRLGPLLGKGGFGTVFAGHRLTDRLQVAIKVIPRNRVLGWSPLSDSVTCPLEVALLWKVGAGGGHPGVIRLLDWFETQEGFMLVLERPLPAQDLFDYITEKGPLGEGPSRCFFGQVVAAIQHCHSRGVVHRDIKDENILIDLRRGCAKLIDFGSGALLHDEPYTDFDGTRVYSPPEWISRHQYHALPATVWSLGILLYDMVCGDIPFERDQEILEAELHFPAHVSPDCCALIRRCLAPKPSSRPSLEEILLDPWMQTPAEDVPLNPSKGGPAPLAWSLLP

[29] = target: PRAK (Homo sapiens, UniProt Q8IW41); assay: Kinase selectivity, Table 5: PRAK; conditions: read-out: selectivity data (inhibition), PRAK
Sequence of PRAK (Q8IW41 whole entry, species assumed): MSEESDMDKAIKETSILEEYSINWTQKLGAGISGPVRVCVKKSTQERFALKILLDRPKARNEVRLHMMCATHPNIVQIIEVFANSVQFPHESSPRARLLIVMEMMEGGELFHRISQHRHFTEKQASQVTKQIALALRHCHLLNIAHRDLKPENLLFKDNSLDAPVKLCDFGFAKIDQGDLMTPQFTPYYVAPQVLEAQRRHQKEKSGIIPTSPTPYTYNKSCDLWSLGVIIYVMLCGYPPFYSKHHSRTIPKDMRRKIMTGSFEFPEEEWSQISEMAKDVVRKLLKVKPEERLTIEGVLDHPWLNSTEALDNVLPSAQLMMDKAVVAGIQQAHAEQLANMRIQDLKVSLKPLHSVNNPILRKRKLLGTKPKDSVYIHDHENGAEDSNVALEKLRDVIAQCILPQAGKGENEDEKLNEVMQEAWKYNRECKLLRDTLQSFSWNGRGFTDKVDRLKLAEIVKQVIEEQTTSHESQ

[30] = target: BTK (Homo sapiens, UniProt Q06187); assay: Kinase selectivity, Table 5: BTK; conditions: read-out: selectivity data (inhibition), BTK
[31] = target: PKGα (Homo sapiens, UniProt Q13976); assay: Kinase selectivity, Table 5: PKGα; conditions: read-out: selectivity data (inhibition), PKGα
Sequence of PKGα (Q13976 whole entry): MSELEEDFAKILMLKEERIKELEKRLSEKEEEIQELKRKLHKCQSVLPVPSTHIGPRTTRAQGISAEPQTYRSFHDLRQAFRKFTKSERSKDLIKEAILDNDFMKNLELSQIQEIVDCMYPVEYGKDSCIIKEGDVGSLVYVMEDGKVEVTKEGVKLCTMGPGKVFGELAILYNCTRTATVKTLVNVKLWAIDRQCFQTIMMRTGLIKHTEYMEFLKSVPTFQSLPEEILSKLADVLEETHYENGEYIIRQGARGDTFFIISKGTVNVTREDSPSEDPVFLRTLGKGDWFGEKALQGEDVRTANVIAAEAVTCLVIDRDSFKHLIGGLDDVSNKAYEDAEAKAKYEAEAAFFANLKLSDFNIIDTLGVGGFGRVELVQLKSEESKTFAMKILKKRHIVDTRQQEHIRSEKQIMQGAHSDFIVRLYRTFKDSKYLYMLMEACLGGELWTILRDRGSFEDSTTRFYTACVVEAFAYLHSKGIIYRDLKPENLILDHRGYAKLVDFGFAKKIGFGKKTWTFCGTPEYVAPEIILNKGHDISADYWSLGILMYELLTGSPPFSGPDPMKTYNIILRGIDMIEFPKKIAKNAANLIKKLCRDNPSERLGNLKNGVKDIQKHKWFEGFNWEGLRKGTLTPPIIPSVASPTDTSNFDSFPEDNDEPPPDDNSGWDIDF

[32] = target: MAPKAPK2 (Homo sapiens, UniProt P49137); assay: Kinase selectivity, Table 5: MAPKAPK2; conditions: read-out: selectivity data (inhibition), MAPKAPK2
[33] = target: LYN (Homo sapiens, UniProt P07948); assay: Kinase selectivity, Table 5: LYN; conditions: read-out: selectivity data (inhibition), LYN
Sequence of LYN (P07948 whole entry, species assumed): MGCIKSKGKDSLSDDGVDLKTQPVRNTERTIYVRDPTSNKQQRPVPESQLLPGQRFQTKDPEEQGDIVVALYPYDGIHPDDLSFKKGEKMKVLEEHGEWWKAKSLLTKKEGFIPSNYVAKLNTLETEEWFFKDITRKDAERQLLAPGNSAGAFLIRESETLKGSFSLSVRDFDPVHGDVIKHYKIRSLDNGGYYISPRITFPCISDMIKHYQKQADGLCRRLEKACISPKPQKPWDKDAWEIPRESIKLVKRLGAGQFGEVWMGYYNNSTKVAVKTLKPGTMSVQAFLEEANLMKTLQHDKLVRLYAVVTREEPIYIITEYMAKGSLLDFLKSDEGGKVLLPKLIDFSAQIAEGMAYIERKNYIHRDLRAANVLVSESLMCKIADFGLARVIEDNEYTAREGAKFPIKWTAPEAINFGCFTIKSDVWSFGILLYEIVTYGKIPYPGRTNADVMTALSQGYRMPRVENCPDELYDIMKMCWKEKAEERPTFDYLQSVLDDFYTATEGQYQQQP

[34] = target: MST2 (Homo sapiens, UniProt Q13188); assay: Kinase selectivity, Table 5: MST2; conditions: read-out: selectivity data (inhibition), MST2

CC(C)c1ccc(C=C2SC(=O)NC2=O)cc1 [5-(4-iso-propylbenzylidene)thiazolidine-2,4-dione]
inhibition at 5 µM [1]: 18% | inhibition at 5 µM [2]: 7% | inhibition at 5 µM [3]: 4% | inhibition at 5 µM [4]: 5% | inhibition at 5 µM [5]: -6% | inhibition at 5 µM [6]: 9% | inhibition at 5 µM [7]: -1% | inhibition at 5 µM [8]: 5% | inhibition at 5 µM [9]: -6% | inhibition at 5 µM [10]: 36% | inhibition at 5 µM [11]: 1% | inhibition at 5 µM [12]: -1% | inhibition at 5 µM [13]: -1% | inhibition at 5 µM [14]: 0% | inhibition at 5 µM [15]: -1% | inhibition at 5 µM [16]: 8% | inhibition at 5 µM [17]: 4% | inhibition at 5 µM [18]: -8% | inhibition at 5 µM [19]: 6% | inhibition at 5 µM [20]: 6% | inhibition at 5 µM [21]: 14% | inhibition at 5 µM [22]: -1% | inhibition at 5 µM [23]: -1% | inhibition at 5 µM [24]: 9% | inhibition at 5 µM [25]: -3% | inhibition at 5 µM [26]: 3% | inhibition at 5 µM [27]: 68% | inhibition at 5 µM [28]: 62% | inhibition at 5 µM [29]: 4% | inhibition at 5 µM [30]: 7% | inhibition at 5 µM [31]: 0% | inhibition at 5 µM [32]: 5% | inhibition at 5 µM [33]: 8% | inhibition at 5 µM [34]: 1%
